# Measured values published in PMC467089, “Click estradiol dimers with novel aromatic bridging units: synthesis and anticancer evaluation” (Journal of Enzyme Inhibition and Medicinal Chemistry, 2024).
# “Also recorded” adds a separate entry of the source.
# Legend:
# [1] = system: HCT116 (colorectal adenocarcinoma); experiment: MTS cytotoxicity assay, HCT116; type: cell-based; conditions: Homo sapiens, HCT-116; MTS assay, 72-h incubation, mean ± SD of 3 independent experiments; read-out: IC50 cytotoxic activity HCT116
# How it was run: (§1)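 Culture medium carried 10% foetal calf serum plus antibiotics. Treatment lasted 72 h with a fourfold dilution series, followed by MTS detection, in technical duplicate across three biological replicates.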
# porcine brain tubulin = biological target: T1, porcine brain tubulin (Sus scrofa, UniProt P02550+P02554); experiment: Tubulin polymerisation assay; type: biochemical; conditions: for inhibitory activity against tubulin polymerisation (in words): 10 μmol/L, Vmax relative to DMSO; for IC50: dose-response, mean ± SD of two independent experiments, read-out: IC50 inhibition of tubulin assembly; for inhibition at 10 µM: read-out: Tubulin polymerisation inhibition
# T1 construct: purchased Cytoskeleton, Denver, CO; host or cells: porcine brain (tissue-purified)
# How it was run: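 Test compounds (10 μmol/L) or DMSO vehicle added to >99% pure porcine brain tubulin. Polymerisation read at 37 °C on a plate reader, and Vmax taken from each curve.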
# [2] = MTS cytotoxicity assay, MRC-5; type: cell-based; conditions: human, MRC-5 cells (non-tumour fibroblasts); MTS assay, 72-h incubation, mean ± SD of 3 independent experiments; read-out: IC50 cytotoxic activity MRC-5
# How it was run: as §1
# [3] = system: CCRF-CEM (childhood T-cell acute lymphoblastic leukaemia); experiment: MTS cytotoxicity assay, CCRF-CEM; type: cell-based; conditions: Homo sapiens, MTS assay, 72-h incubation, mean ± SD of 3 independent experiments, read-out: IC50 cytotoxic activity CCRF-CEM
# How it was run: as §1
# U2OS cells = experiment: Immunofluorescence of microtubules / mitotic spindle; type: cell-based, human; conditions: 10 µM, 24-h incubation
# Source text: In addition, the presence of aster-like tubulin structures indicated the failure in microtubule elongation (Figure 4, ED5). […] The observed intracellular effects of ED3 and ED5 are consistent with data from in vitro assembly assays and cell cycle analyses, thereby strongly supporting the proposed antimitotic mechanisms of these EDs. […] Importantly, cytotoxic IC50 values may vary depending on the duration of exposure to the drug. A more extended exposure could lead to a decrease in the IC50 value, and vice versa. This temporal factor could also contribute to the observed differential sensitivity among the cell lines. The detailed mechanism and the extent to which these cellular and molecular dynamics (MD) contribute to the observed phenomenon might necessitate further investigation and experimentation.
# U2OS cells, cultivated on coverslips, underwent a PBS wash and were then fixed in a solution of 3% paraformaldehyde in a buffer containing 10 mM MES, 150 mM NaCl, 5 mM EGTA, 5 mM MgCl2, 5 mM glucose, adjusted to a pH of 6.1. The nuclei were made visible using Hoechst 33342. Subsequently, a 60-min blocking step with 5% goat serum in PBS (SpinChem, Seattle, WA) was followed by a 60-min incubation with α-tubulin (DM1A) mouse monoclonal antibody (Cell Signaling, Danvers, MA) in PBS supplemented with 1% BSA and 0.3% Triton X-100. Visualisation was achieved using Alexa Fluor-488 conjugated anti-mouse antibodies (Life Technologies, Carlsbad, CA). Between each step, the samples underwent a series of three 5-min washes with PBS. Finally, the samples were mounted using Vectashield Mounting Medium with DAPI and imaged utilising a Zeiss spinning disk confocal microscope equipped with CSU-X1 unit (Yokogawa, Musashino, Japan)[10].
# CCRF-CEM lymphoblasts = experiment: Cell cycle analysis by flow cytometry (propidium iodide); type: cell-based, human
# How it was run: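 CCRF-CEM cells treated 24 h, then fixed in cold 70% ethanol, permeabilised with 0.25% Triton X-100 and stained with anti-phospho-histone H3 (Ser10). After 50 μg/mL RNase and propidium iodide, analysed by flow cytometry at 488 nm; sub-G1 events counted as non-viable with fragmented DNA.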
# [4] = MTS cytotoxicity assay, HUVEC; type: cell-based; conditions: human, HUVEC cells (umbilical vein endothelial cells); MTS assay, 72-h incubation, mean ± SD of 3 independent experiments; read-out: IC50 cytotoxic activity HUVEC
# How it was run: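 Overnight-seeded cells → fourfold serial compound dilutions (DMSO) → 72 h, 37 °C, 5% CO2 → MTS added. Duplicates ×3 biological reps.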
# T1 sequence (P02550 whole entry): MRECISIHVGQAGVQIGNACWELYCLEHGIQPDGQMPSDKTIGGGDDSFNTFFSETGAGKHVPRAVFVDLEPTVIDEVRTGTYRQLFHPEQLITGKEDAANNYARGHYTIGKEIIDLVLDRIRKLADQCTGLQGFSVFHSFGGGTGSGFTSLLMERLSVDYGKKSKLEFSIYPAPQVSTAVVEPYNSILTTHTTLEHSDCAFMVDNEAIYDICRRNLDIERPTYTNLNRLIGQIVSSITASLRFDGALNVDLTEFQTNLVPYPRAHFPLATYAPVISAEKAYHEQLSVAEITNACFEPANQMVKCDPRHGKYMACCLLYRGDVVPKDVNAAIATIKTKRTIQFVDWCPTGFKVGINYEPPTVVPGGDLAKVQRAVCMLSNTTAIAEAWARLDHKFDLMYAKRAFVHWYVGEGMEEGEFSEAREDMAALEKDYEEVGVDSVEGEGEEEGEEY
# T1 sequence (P02554 whole entry): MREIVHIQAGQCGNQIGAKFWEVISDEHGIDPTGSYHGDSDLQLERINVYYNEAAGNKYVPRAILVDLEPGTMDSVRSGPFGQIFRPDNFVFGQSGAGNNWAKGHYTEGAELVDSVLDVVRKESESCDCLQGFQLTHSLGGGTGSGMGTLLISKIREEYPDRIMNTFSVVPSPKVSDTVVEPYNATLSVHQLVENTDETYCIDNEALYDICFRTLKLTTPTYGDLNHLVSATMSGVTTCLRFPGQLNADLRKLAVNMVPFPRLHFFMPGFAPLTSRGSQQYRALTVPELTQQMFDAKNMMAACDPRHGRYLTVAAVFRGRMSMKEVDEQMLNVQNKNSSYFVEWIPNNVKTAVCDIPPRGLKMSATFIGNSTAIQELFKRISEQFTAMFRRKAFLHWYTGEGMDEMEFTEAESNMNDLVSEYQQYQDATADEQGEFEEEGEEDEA
SMILES,IC50 [1],inhibitory activity against tubulin polymerisation (in words) (porcine brain tubulin),IC50 (porcine brain tubulin),inhibition at 10 µM (porcine brain tubulin),IC50 at 72 h [2],IC50 [3],microtubule organisation in mitotic cells (in words) (U2OS cells),"<G1 (sub-G1, fragmented DNA), % of positive cells (CCRF-CEM lymphoblasts; 1×IC50, 24 h)",">G2/M (polyploidy), % of positive cells (CCRF-CEM lymphoblasts; 1×IC50, 24 h)","G0/G1, % of positive cells (CCRF-CEM lymphoblasts; 1×IC50, 24 h)","G2/M, % of positive cells (CCRF-CEM lymphoblasts; 1×IC50, 24 h)","S, % of positive cells (CCRF-CEM lymphoblasts; 1×IC50, 24 h)","<G1 (sub-G1, fragmented DNA), % of positive cells (CCRF-CEM lymphoblasts; 5×IC50, 24 h)",">G2/M (polyploidy), % of positive cells (CCRF-CEM lymphoblasts; 5×IC50, 24 h)","G0/G1, % of positive cells (CCRF-CEM lymphoblasts; 5×IC50, 24 h)","G2/M, % of positive cells (CCRF-CEM lymphoblasts; 5×IC50, 24 h)","S, % of positive cells (CCRF-CEM lymphoblasts; 5×IC50, 24 h)",IC50 at 72 h [4]
"COc1cc(Cn2cc([C@]3(O)CC[C@H]4[C@@H]5CCc6cc(O)ccc6[C@H]5CC[C@@]43C)nn2)cc(Cn2cc([C@]3(O)CC[C@H]4[C@@H]5CCc6cc(O)ccc6[C@H]5CC[C@@]43C)nn2)c1 [ED3, (17β,17′β)-17,17′-[(5-Methoxybenzene-1,3-diyl)bis(methanediyl-1H-1,2,3-triazole-1,4-diyl)]bisestra-1,3,5(10)-triene-3,17-diol]",470 ± 22 nM,comparable or better inhibitory activity,2240 ± 1540 nM,31.6%,> 50000 nM,380 ± 19 nM,disruption in microtubule organisation,33.51%,10.23%,6.68%,70.65%,22.67%,53.18%,9.8%,6.89%,71.67%,21.44%,< 12.2 nM
"C[C@]12CC[C@@H]3c4ccc(O)cc4CC[C@H]3[C@@H]1CC[C@@]2(O)c1cn(Cc2cc(Cn3cc([C@]4(O)CC[C@H]5[C@@H]6CCc7cc(O)ccc7[C@H]6CC[C@@]54C)nn3)cc(OCCO)c2)nn1 [ED5, (17β,17′β)-17,17′-{[5-(2-Hydroxyethoxy)benzene-1,3-diyl]bis(methanediyl-1H-1,2,3-triazole-1,4-diyl)}bisestra-1,3,5(10)-triene-3,17-diol]",2020 ± 190 nM,comparable or better inhibitory activity; also recorded: most potent inhibitor of in vitro tubulin polymerisation,2010 ± 210 nM,70.2%,> 50000 nM,710 ± 40 nM,disruption in microtubule organisation,29.35%,6.16%,35.53%,26.90%,37.57%,36.87%,10.73%,13.42%,61.48%,25.09%,< 12.2 nM
"C[C@]12CC[C@@H]3c4ccc(O)cc4CC[C@H]3[C@@H]1CC[C@@]2(O)c1cn(Cc2cccc(Cn3cc([C@]4(O)CC[C@H]5[C@@H]6CCc7cc(O)ccc7[C@H]6CC[C@@]54C)nn3)n2)nn1 [ED, reference compound]",950 ± 110 nM,,2180 ± 1800 nM,55.6%,1160 ± 250 nM,490 ± 220 nM,disruption in microtubule organisation,11.51%,11.2%,33.48%,25.59%,40.93%,22.78%,23.1%,2.50%,59.11%,38.39%,24.4 ± 17 nM
